Like-named read-outs stand apart in the source and are kept apart here.
Key:
Format in all cases: biochemical
[1] = target: T1, PI3Kβ (Homo sapiens, UniProt P42338); test: TR-FRET enzymatic activity assay, PI3Kβ
T1 construct: made in house

[2] = target: T2, PI3Kγ (Homo sapiens, UniProt P48736); test: TR-FRET enzymatic activity assay, PI3Kγ; conditions: read-out: PI3Kγ IC50
T2 construct: made in house
Description: The compounds of formula (I) were characterized for their enzymatic activity against the PI3K isoforms. The activities were measured using a time-resolved fluorescence resonance energy transfer (TR-FRET) assay.

[3] = target: T3, PI3Kδ (Homo sapiens, UniProt O00329); test: TR-FRET enzymatic activity assay, PI3Kδ
T3 construct: made in house
T3 sequence (O00329 whole entry): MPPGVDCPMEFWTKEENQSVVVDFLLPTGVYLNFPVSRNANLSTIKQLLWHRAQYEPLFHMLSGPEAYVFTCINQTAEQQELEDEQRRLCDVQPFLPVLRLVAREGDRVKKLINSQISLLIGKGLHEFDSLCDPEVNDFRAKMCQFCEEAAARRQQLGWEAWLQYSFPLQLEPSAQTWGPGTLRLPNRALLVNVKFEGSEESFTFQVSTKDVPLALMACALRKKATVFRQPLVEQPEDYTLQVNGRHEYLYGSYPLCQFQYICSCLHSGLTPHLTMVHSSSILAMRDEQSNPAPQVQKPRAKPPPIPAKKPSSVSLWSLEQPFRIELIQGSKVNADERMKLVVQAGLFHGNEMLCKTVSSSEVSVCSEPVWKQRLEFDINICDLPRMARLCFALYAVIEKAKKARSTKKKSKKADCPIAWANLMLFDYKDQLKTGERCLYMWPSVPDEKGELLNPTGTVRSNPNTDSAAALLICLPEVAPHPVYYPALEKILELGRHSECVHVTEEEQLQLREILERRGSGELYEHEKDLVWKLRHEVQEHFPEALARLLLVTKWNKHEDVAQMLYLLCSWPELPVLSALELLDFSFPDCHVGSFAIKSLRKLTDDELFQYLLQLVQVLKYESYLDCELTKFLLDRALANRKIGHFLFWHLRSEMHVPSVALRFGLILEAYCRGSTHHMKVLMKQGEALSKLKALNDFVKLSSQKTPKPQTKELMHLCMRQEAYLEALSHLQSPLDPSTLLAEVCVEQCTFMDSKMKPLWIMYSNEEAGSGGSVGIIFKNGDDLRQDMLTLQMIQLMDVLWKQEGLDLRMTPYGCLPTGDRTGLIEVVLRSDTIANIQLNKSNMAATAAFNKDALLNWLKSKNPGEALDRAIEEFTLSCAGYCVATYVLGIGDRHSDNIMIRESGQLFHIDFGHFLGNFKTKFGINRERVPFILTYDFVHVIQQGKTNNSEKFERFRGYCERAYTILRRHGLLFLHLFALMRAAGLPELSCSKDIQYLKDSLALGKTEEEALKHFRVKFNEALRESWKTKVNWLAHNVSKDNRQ
T3 sequence (P27986 whole entry partner): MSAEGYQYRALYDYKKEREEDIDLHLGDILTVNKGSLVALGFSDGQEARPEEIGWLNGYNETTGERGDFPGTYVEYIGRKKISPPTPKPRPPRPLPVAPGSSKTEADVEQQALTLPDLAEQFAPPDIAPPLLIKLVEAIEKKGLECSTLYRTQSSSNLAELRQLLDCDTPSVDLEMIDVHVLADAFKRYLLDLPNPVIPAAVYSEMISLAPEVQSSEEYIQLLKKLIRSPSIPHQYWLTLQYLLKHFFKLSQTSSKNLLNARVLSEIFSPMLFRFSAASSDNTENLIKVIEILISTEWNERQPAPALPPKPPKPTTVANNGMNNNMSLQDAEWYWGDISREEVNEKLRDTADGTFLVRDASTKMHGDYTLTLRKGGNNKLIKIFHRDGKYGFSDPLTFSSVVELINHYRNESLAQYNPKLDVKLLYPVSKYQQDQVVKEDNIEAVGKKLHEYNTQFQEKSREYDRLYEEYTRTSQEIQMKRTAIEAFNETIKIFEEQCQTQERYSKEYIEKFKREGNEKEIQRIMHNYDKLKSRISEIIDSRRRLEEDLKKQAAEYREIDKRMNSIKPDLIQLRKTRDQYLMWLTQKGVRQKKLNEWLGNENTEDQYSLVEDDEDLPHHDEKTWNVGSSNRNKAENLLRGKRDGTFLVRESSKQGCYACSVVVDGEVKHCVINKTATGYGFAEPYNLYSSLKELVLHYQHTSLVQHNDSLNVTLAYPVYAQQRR

[4] = Table 2, TR-FRET, 2x Km ATP, 30 minutes at 25° C.

T1 sequence (P42338 whole entry): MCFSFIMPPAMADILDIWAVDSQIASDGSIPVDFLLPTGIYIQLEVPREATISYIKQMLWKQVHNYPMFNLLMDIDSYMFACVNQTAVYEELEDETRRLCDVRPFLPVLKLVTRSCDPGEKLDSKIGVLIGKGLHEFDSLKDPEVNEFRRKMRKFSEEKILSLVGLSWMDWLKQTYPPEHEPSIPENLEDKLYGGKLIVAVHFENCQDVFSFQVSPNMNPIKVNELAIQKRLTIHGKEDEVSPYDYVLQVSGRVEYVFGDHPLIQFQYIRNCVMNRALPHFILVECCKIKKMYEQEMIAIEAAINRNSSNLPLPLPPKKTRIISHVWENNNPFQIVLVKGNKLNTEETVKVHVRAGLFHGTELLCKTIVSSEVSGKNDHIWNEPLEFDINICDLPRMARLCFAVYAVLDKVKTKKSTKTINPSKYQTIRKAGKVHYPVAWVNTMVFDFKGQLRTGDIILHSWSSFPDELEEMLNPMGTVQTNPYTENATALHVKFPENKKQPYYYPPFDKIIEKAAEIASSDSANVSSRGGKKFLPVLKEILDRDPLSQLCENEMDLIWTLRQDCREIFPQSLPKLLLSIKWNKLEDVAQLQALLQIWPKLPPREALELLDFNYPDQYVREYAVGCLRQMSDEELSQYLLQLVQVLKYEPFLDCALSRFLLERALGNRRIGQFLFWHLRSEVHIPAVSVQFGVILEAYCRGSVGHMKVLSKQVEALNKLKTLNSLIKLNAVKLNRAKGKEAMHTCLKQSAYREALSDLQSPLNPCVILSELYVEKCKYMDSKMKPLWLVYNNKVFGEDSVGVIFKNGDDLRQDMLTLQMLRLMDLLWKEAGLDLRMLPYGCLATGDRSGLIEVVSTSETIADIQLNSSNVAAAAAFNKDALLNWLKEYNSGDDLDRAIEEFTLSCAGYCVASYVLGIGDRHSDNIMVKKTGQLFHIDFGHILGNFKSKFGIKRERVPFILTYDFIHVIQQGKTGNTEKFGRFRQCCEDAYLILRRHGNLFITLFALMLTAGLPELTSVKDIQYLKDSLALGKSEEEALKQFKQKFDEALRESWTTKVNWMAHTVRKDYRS
T1 sequence (P27986 whole entry partner): as the sequence (P27986 whole entry partner) above
T2 sequence (P48736 whole entry): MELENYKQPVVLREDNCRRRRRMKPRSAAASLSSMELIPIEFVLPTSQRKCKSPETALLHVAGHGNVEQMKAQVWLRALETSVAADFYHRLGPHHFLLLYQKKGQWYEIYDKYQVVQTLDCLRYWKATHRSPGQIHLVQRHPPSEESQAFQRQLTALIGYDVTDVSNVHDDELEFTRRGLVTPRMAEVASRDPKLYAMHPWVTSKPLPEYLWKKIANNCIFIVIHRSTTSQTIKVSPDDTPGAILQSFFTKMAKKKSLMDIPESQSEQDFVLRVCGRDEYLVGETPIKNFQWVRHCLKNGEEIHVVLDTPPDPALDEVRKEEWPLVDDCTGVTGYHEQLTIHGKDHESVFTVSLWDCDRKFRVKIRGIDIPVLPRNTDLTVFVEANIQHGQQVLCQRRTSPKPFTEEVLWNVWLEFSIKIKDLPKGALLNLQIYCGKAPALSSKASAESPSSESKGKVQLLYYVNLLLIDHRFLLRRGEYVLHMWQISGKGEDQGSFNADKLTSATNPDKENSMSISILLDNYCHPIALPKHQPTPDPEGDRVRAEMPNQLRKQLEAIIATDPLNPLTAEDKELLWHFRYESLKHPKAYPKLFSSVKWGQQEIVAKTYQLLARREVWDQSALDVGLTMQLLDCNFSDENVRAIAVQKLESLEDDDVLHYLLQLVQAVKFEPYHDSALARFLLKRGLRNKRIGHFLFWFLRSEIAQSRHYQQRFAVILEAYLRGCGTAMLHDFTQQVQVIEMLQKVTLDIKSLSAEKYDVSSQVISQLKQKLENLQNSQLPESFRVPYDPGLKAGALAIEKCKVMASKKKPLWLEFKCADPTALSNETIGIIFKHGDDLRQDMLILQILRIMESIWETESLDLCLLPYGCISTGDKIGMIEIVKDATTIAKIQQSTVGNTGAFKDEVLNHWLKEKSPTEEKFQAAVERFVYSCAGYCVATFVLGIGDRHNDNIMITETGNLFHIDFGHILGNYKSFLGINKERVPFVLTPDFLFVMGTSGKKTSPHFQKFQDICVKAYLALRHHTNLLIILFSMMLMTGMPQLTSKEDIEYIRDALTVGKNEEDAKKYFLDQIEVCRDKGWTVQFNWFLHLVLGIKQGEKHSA

| Structure (SMILES) | IC50 [1, 4] | IC50 [2, 4] | IC50 [3, 4] | IC50 [2] | other results |
| --- | --- | --- | --- | --- | --- |
| C[C@H](Nc1nc(N)nc(N)c1C#N)c1nc2cccc(Cl)c2c(=O)n1-c1ccccc1 [(S)-2,4-diamino-6-((1-(5-chloro-4-oxo-3-phenyl-3,4-dihydroquinazolin-2-yl)ethyl)amino)pyrimidine-5-carbonitrile] |  |  |  |  | PI3Kγ/PI3Kβ IC50 ratio ([1]; ratio of IC50 values, text b271): less than 1 fold |
| CC[C@H](Nc1nc(N)nc(N)c1C#N)c1nc2cccc(Cl)c2c(=O)n1-c1cc[nH]n1 [Compound 1, (S)-2,4-diamino-6-((1-(5-chloro-4-oxo-3-(1H-pyrazol-3-yl)-3,4-dihydroquinazolin-2-yl)propyl)amino)pyrimidine-5-carbonitrile] | 1 nM | 330 nM | 0.6 nM |  |  |
| Cc1c[nH]nc1-n1c([C@H](C)Nc2ncnc(N)c2C#N)nc2cccc(Cl)c2c1=O [Compound 3, (S)-4-amino-6-((1-(5-chloro-3-(4-methyl-1H-pyrazol-3-yl)-4-oxo-3,4-dihydroquinazolin-2-yl)ethyl)amino)pyrimidine-5-carbonitrile] | 55 nM | 3000 nM | 2 nM |  |  |
| CC(C)Cc1cc(-n2c([C@H](C)Nc3ncnc(N)c3C#N)nc3cccc(Cl)c3c2=O)n[nH]1 [Compound 4, (S)-4-amino-6-((1-(5-chloro-3-(5-isobutyl-1H-pyrazol-3-yl)-4-oxo-3,4-dihydroquinazolin-2-yl)ethyl)amino)pyrimidine-5-carbonitrile] | 84 nM |  | 7 nM |  |  |
| C[C@H](Nc1ncnc(N)c1C#N)c1nc2cccc(Cl)c2c(=O)n1-c1cc(C2CC2)[nH]n1 [Compound 5, (S)-4-amino-6-((1-(5-chloro-3-(5-cyclopropyl-1H-pyrazol-3-yl)-4-oxo-3,4-dihydroquinazolin-2-yl)ethyl)amino)pyrimidine-5-carbonitrile] | 340 nM |  | 28 nM | > 10000 nM |  |
| C[C@H](Nc1ncnc(N)c1C#N)c1nc2cccc(Cl)c2c(=O)n1-c1cc(C(F)(F)F)[nH]n1 [Compound 6, (S)-4-amino-6-((1-(5-chloro-4-oxo-3-(5-(trifluoromethyl)-1H-pyrazol-3-yl)-3,4-dihydroquinazolin-2-yl)ethyl)amino)pyrimidine-5-carbonitrile] | 730 nM |  | 150 nM | > 10000 nM |  |
| Cc1cc(-n2c([C@H](C)Nc3ncnc(N)c3C#N)nc3cccc(Cl)c3c2=O)n[nH]1 [Compound 7, (S)-4-amino-6-((1-(5-chloro-3-(5-methyl-1H-pyrazol-3-yl)-4-oxo-3,4-dihydroquinazolin-2-yl)ethyl)amino)pyrimidine-5-carbonitrile] | 200 nM |  | 43 nM | > 10000 nM |  |
| Cc1cc(-n2c([C@H](C)Nc3ncnc4scnc34)nc3cccc(Cl)c3c2=O)n[nH]1 [Compound 8, (S)-5-chloro-3-(5-methyl-1H-pyrazol-3-yl)-2-(1-(thiazolo[5,4-d]pyrimidin-7-ylamino)ethyl)quinazolin-4(3H)-one] | 41 nM |  | 11 nM | > 10000 nM |  |
| C[C@H](Nc1ncnc2occc12)c1nc2cccc(Cl)c2c(=O)n1-c1cc[nH]n1 [Compound 9, (S)-5-chloro-2-(1-(furo[2,3-d]pyrimidin-4-ylamino)ethyl)-3-(1H-pyrazol-3-yl)quinazolin-4(3H)-one] | 940 nM |  | 140 nM | > 10000 nM |  |
| Nc1nc(N)c(Cl)c(N[C@H](c2nc3cccc(F)c3c(=O)n2-c2cc[nH]n2)C2CC2)n1 [Compound 10, (S)-2-(cyclopropyl((2,6-diamino-5-chloropyrimidin-4-yl)amino)methyl)-5-fluoro-3-(1H-pyrazol-3-yl)quinazolin-4(3H)-one] | 71 nM |  | 28 nM | > 10000 nM |  |
| Nc1nc(N)c(Cl)c(N[C@H](c2nc3c(F)ccc(F)c3c(=O)n2-c2cc[nH]n2)C2CC2)n1 [Compound 11, (S)-2-(cyclopropyl((2,6-diamino-5-chloropyrimidin-4-yl)amino)methyl)-5,8-difluoro-3-(1H-pyrazol-3-yl)quinazolin-4(3H)-one] | 120 nM |  | 44 nM | > 10000 nM |  |
| Nc1nc(N)c(Cl)c(N[C@H](c2nc3c(F)cccc3c(=O)n2-c2cc[nH]n2)C2CC2)n1 [Compound 12, (S)-2-(cyclopropyl((2,6-diamino-5-chloropyrimidin-4-yl)amino)methyl)-8-fluoro-3-(1H-pyrazol-3-yl)quinazolin-4(3H)-one] | 220 nM |  | 51 nM | > 10000 nM |  |
| Nc1nc(N)c(Cl)c(N[C@H](c2nc3c(Cl)cccc3c(=O)n2-c2cc[nH]n2)C2CC2)n1 [Compound 13, (S)-8-chloro-2-(cyclopropyl((2,6-diamino-5-chloropyrimidin-4-yl)amino)methyl)-3-(1H-pyrazol-3-yl)quinazolin-4(3H)-one] | 140 nM |  | 39 nM | > 10000 nM |  |
| Nc1nc(N)c(Cl)c(N[C@H](c2nc3cccc(Cl)c3c(=O)n2-c2cc(Cl)[nH]n2)C2CC2)n1 [Compound 14, (S)-5-chloro-3-(5-chloro-1H-pyrazol-3-yl)-2-(cyclopropyl((2,6-diamino-5-chloropyrimidin-4-yl)amino)methyl)quinazolin-4(3H)-one] | 350 nM | 7600 nM | 51 nM |  |  |
| C[C@H](Nc1nc(N)nc(N)c1C#N)c1nc2cccc(Cl)c2c(=O)n1-c1cn[nH]c1 [Compound 15, (S)-2,4-diamino-6-((1-(5-chloro-4-oxo-3-(1H-pyrazol-4-yl)-3,4-dihydroquinazolin-2-yl)ethyl)amino)pyrimidine-5-carbonitrile] | 1 nM | 43 nM | 0.4 nM |  |  |
| N#Cc1c(N)nc(N)nc1N[C@H](c1nc2cccc(Cl)c2c(=O)n1-c1cn[nH]c1)C1CC1 [Compound 17, (S)-2,4-diamino-6-(((5-chloro-4-oxo-3-(1H-pyrazol-4-yl)-3,4-dihydroquinazolin-2-yl)(cyclopropyl)methyl)amino)pyrimidine-5-carbonitrile] | 2 nM | 67 nM | 0.6 nM |  |  |
| Nc1nc(N)c(Cl)c(N[C@H](c2nc3cccc(Cl)c3c(=O)n2-c2cn[nH]c2)C2CC2)n1 [Compound 19, (S)-5-chloro-2-(cyclopropyl((2,6-diamino-5-chloropyrimidin-4-yl)amino)methyl)-3-(1H-pyrazol-4-yl)quinazolin-4(3H)-one] | 32 nM | 1700 nM | 6 nM |  |  |
| CC[C@H](Nc1nc(N)nc(N)c1C#N)c1nc2cccc(Cl)c2c(=O)n1-c1cn[nH]c1 [Compound 21, (S)-2,4-diamino-6-((1-(5-chloro-4-oxo-3-(1H-pyrazol-4-yl)-3,4-dihydroquinazolin-2-yl)propyl)amino)pyrimidine-5-carbonitrile] | 9 nM | 230 nM | 2 nM |  |  |
| N#Cc1c(N)nc(N)nc1N1CCC[C@H]1c1nc2cccc(Cl)c2c(=O)n1-c1cn[nH]c1 [Compound 23, (S)-2,4-diamino-6-(2-(5-chloro-4-oxo-3-(1H-pyrazol-4-yl)-3,4-dihydroquinazolin-2-yl)pyrrolidin-1-yl)pyrimidine-5-carbonitrile] | 150 nM | 740 nM | 9 nM |  |  |
| N#Cc1c(N)nc(N)nc1N1CCC[C@H]1c1nc2cccc(Cl)c2c(=O)n1-c1cc[nH]n1 [Compound 24, (S)-2,4-diamino-6-(2-(5-chloro-4-oxo-3-(1H-pyrazol-3-yl)-3,4-dihydroquinazolin-2-yl)pyrrolidin-1-yl)pyrimidine-5-carbonitrile] | 22 nM | 780 nM | 4 nM |  |  |
| O=c1c2c(Cl)cccc2nc([C@@H](Nc2ncnc3scnc23)C2CC2)n1-c1cn[nH]c1 [Compound 25, (S)-5-chloro-2-(cyclopropyl(thiazolo[5,4-d]pyrimidin-7-ylamino)methyl)-3-(1H-pyrazol-4-yl)quinazolin-4(3H)-one] | 5 nM | 130 nM | 1 nM |  |  |
| O=c1c2c(Cl)cccc2nc([C@@H](Nc2ncnc3scnc23)C2CC2)n1-c1cc[nH]n1 [Compound 26, (S)-5-chloro-2-(cyclopropyl(thiazolo[5,4-d]pyrimidin-7-ylamino)methyl)-3-(1H-pyrazol-3-yl)quinazolin-4(3H)-one] | 3 nM | 1300 nM | 0.6 nM |  |  |
| Nc1nc(N)c(Cl)c(N[C@H](c2nc3cccc(Cl)c3c(=O)n2-c2cc[nH]n2)C2CCC2)n1 [Compound 127, (S)-5-chloro-2-(cyclobutyl((2,6-diamino-5-chloropyrimidin-4-yl)amino)methyl)-3-(1H-pyrazol-3-yl)quinazolin-4(3H)-one] |  |  |  |  | IC50 ([1]; Table 2a, same assay): 49 nM; IC50 ([3]; Table 2a, same assay): 21 nM |
| CC(C)[C@H](Nc1nc(N)nc(N)c1Cl)c1nc2cccc(Cl)c2c(=O)n1-c1cc[nH]n1 [Compound 146, (S)-5-chloro-2-(1-((2,6-diamino-5-chloropyrimidin-4-yl)amino)-2-methylpropyl)-3-(1H-pyrazol-3-yl)quinazolin-4(3H)-one] |  |  |  |  | IC50 ([1]; Table 2a, same assay): 94 nM; IC50 ([3]; Table 2a, same assay): 25 nM |
| Cc1c[nH]nc1-n1c([C@@H](NC2=NC(N)=NC3=NN=C(Br)C32)C2CC2)nc2cccc(Cl)c2c1=O (stereo partly shown) [Compound 242, 2-((1 S)-((6-amino-3-bromo-3aH-pyrazolo[3,4-d]pyrimidin-4-yl)amino)(cyclopropyl)methyl)-5-chloro-3-(4-methyl-1H-pyrazol-3-yl)quinazolin-4(3H)-one] |  |  |  |  | IC50 ([1]; Table 2a, same assay): 1600 nM; IC50 ([3]; Table 2a, same assay): 220 nM |
| C[C@H](Nc1nc(N)nc(N)c1C#N)c1nc2cccc(Cl)c2c(=O)n1-c1ccccc1 [Compound X, (S)-2,4-diamino-6-((1-(5-chloro-4-oxo-3-phenyl-3,4-dihydroquinazolin-2-yl)ethyl)amino)pyrimidine-5-carbonitrile, reference compound] |  |  |  |  | PI3Kγ/PI3Kβ ratio ([1]; ratio of IC50 values): 0.6 |

From US10308639B2, “Phosphatidylinositol 3-kinase inhibitors” (Gilead Sciences, Inc., priority 2014, dated 2019)
